In US20030166601A1, “Novel colloid synthetic vectors for gene therapy” (priority 1999, published 2003):

Key:
mouse = assay: In vivo transfection with cationic lipid complexes containing fusogenic or steric surfactants; conditions: DOTAP:Chol core complexes; FIG. 7
Protocol: All lipids of a formulation including surfactants were dissolved in an organic solvent such as cyclohexane and mixed together at the desired ratio and then lyophilized to dryness. For example, 45 mg DOTAP and 25 mg cholesterol, or 10 mg GC-030 and 4.74 mg cholesterol were used for DOTAP:Chol and GC-030:Chol, respectively. Double distilled water was added to the lipid cake to give a final concentration of 10 mg/ml of cationic lipid (cholesterol is a neutral lipid that is not counted for calculation of lipid dispersion concentration or later for charge ratio with DNA) and allowed to hydrate at 70 C for 1 hr. The lipid dispersion was extruded through 100 nm pore carbonate membranes (Avanti Polar Lipids Inc) or vortexed for 1 min at room temperature.
Forty microgram of pCILuc was dissolved in 100 μl of 10% glucose and mixed by hand with different amount of lipids dispersion dissolved in 100 μl distilled H2O. The final concentration of Glucose is 5%. The mixing was performed by added the DNA solution to the lipid solution. The charge ratio of lipids to DNA in this mixture was indicated in the text. 200 μl of DNA/lipid complex solutions was injected into mouse tail vein. Each group had 3-5 mice. Five hours later, mice were sacrificed. […] Luciferase activity was determined by using luciferase assay system kit from Promega. […]

BL-6 cells = format: cell-based; conditions: polylysine core complexes; FIG. 8
HUVEC cells = assay: Transfection of HUVEC cells with K14RGD/Lipofectin complexes, luciferase; format: cell-based; conditions: added to lipofectin core complexes; FIG. 25
Protocol: 20000 HUVEC cells were seeded to each well of a 96 well plate and cultured for 12 hr before transfection. 0 or 2 ug of K14RGD peptide was mixed with indicated amount of Lipofectin from 0.1 ul to 4 ul in 50 ul of serum free medium for 15 min. The mixture was added to 50 ul serum free medium containing 0.5 ug pCIluc2 DNA. The poly-lipoplex was incubated for 30 min before added to the cells. The transfection solution was removed after 3 hr and serum-containing medium was added to the cells.
At 24 hr, luciferase activity was measured with Promega luciferase assay kit according to the recommended procedure.

CCCCCCCC/C=C\CCCCCCCC(=O)OCCOCC(OCCO)C1OCC(OCCO)C1OCCO (stereo not drawn) [Tween 80]
gene transfer in vivo, effect of additive (mouse): improved

GLF GAI EGF IEN GWE GWI DGW YGC KCK KKK KKK KKK KKK K [Example K14-Fuso]
expression, effect of fusogenic peptide (BL-6 cells): increased expression

KKK KKK KKK KKK KKS CRG DC [Example K14RGD]
expression, effect of peptide ligand (HUVEC cells): increased expression
